Data taken from publication PMC2779714 (Science signaling, 2009).

Legend:
TRPM2 [1] = molecular target: TRPM2 (Mus musculus, UniProt Q91YD4); assay: whole-cell patch clamp with intracellular ADPR; assay type: cell-based
TRPM2 [2] = molecular target: TRPM2 (Rattus norvegicus, UniProt E9PTA2); assay: whole-cell patch clamp with intracellular ADPR; assay type: cell-based
TRPM2 (Rattus norvegicus, UniProt E9PTA2), sequence (E9PTA2 whole entry): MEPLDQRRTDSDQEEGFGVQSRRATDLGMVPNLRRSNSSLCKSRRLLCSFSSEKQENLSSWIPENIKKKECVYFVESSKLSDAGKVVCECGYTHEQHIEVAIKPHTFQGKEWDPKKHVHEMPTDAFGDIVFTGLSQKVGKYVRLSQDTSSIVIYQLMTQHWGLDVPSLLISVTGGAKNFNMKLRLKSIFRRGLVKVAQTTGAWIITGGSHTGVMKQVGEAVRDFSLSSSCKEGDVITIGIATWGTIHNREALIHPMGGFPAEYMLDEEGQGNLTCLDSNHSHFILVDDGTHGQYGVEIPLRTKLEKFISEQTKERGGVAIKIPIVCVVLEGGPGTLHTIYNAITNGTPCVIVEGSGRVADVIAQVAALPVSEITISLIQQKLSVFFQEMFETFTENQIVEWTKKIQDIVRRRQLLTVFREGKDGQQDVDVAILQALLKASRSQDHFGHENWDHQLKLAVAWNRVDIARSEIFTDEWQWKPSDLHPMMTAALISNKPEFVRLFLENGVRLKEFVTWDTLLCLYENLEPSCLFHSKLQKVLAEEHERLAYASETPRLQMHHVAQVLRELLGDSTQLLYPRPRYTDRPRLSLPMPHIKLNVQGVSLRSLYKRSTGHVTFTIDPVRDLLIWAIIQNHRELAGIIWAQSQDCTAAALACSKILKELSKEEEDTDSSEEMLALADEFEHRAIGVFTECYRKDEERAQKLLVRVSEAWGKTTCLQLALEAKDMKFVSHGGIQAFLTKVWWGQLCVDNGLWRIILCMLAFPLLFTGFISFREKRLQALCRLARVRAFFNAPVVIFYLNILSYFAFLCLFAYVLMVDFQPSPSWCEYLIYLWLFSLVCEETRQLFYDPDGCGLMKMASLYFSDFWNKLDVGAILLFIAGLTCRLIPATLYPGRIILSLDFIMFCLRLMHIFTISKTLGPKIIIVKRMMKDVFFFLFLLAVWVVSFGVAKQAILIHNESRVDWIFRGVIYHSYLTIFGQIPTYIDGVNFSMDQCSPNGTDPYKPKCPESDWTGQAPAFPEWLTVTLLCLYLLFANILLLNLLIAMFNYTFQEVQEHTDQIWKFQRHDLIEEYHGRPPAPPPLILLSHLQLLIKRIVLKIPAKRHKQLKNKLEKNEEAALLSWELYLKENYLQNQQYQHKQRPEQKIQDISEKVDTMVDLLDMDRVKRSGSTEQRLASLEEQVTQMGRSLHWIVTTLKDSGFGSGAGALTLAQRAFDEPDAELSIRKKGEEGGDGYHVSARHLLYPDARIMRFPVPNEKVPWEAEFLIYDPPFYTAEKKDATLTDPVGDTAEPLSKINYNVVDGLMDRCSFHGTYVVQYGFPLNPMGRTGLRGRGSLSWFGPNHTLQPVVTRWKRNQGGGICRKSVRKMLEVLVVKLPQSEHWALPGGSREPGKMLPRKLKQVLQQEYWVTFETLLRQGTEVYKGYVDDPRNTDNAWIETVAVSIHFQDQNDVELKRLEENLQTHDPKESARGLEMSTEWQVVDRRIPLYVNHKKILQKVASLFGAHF

TRPM2 (Mus musculus, UniProt Q91YD4), sequence (Q91YD4 whole entry): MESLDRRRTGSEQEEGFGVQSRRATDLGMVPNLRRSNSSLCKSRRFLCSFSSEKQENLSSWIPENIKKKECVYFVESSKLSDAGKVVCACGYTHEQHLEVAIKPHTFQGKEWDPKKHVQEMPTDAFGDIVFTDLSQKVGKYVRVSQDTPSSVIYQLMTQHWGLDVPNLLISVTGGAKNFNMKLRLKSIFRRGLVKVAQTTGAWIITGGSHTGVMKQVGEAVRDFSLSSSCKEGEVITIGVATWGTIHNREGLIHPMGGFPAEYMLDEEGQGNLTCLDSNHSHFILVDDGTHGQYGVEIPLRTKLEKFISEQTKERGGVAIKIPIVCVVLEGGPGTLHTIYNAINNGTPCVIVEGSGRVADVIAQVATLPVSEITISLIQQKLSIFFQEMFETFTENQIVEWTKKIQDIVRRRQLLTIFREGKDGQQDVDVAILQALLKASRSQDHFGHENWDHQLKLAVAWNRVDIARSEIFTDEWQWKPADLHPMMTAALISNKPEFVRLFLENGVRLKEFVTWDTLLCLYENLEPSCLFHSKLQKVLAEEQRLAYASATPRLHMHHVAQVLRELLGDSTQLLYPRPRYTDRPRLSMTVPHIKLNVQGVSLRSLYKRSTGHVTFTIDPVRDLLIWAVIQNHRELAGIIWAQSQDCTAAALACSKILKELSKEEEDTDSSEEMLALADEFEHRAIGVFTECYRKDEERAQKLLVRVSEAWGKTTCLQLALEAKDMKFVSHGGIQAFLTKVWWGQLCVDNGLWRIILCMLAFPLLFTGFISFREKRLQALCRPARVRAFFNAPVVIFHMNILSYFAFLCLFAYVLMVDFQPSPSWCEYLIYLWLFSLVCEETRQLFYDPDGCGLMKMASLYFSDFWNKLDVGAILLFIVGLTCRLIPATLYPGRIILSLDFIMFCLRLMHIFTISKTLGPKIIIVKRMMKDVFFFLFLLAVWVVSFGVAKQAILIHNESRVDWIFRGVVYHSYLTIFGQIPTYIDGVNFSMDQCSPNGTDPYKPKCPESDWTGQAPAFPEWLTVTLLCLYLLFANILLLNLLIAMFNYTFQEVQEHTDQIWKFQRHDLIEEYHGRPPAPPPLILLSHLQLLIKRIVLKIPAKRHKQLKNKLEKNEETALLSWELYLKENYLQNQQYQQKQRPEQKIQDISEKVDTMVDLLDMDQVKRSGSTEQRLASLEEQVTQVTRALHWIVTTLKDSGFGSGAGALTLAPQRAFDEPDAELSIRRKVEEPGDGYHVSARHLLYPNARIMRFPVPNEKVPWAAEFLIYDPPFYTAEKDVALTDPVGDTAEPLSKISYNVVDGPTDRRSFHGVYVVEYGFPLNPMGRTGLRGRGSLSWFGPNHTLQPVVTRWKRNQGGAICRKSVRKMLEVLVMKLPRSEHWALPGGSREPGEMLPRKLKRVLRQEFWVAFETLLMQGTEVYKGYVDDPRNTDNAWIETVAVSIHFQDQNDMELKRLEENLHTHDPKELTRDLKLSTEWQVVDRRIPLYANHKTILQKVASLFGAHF

- EC50 (TRPM2 [1]): 360 µM
- EC50 (TRPM2 [2]): 110 µM
SMILES: Nc1ncnc2c1ncn2[C@@H]1O[C@H](COP(=O)(O)OP(=O)(O)OC[C@H]2OC(O)[C@H](O)[C@@H]2O)[C@@H](O)[C@H]1O (some centres unmarked) [ADPR]
